≈ marks a conversion by molar mass, not a printed value. Bridge positions count the residues as written; N and C are the ends. Square brackets hold non-standard residues; d marks the D form. Peptide text beside a SMILES is read from it. R5 = C=CCCC[C@@](C)(N)C(=O)O
Legend:
[1] = tested on: A. baumannii; test: DiBAC4(3) membrane depolarization assay; format: cell-based, Acinetobacter baumannii; details: compared to the blank control
Experimental: Mid-log-phase A. baumannii bacterial cells were suspended in 10 mM PBS (pH 7.4) at a density of 10^8 CFU/mL. The cell suspension was then supplemented with 25 mM glucose, followed by 15 min incubation at 37°C. Then, the cell suspension was mixed with 500 nM DiBAC4(3) and incubated for 50 min. After incubation, 90 μL of the cell suspension was transferred to a 96-well plate, and fluorescence was recorded (excitation/emission: 480/520 nm) until the signal stabilized (~40 min). […] Data for blank- and compound-treated groups were compared by plotting fluorescence as function of time ([56]).

[2] = tested on: A. baumannii; test: NPN membrane permeabilization assay; format: cell-based, Acinetobacter baumannii; details: 25 μM, 10^8 CFU/mL
Experimental: (§1) Mid-log-phase bacterial cells (A. baumannii) were resuspended in 10 mM PBS (pH 7.4) to a density of 10^8 CFU/mL. The cell suspension was supplemented with 25 mM glucose followed by 15 min incubation at 37°C. After the incubation, N-phenyl-1-naphthylamine dye was added to a final concentration of 10 μM. Next, 90 μL of bacterial cells was transferred to a 96-well black plate, and fluorescence was recorded for 40 min (excitation/emission: 350/420 nm). […] After this treatment, fluorescence was recorded for an additional 20 min ([53]). Data are presented as fluorescence values as a function of time. Permeabilization of blank- and test compound-treated cells was compared. For the PI membrane permeabilization assay, 10^8 bacterial cells (A. baumannii) were resuspended in MHB containing 20 μg/mL PI. […] Fluorescence was read (excitation/emission: 584/620 nm). Fluorescence values of blank- and compound-treated cells were graphed as a function of time ([54], [55]).

[3] = tested on: A. baumannii; test: PI membrane permeabilization assay; format: cell-based, Acinetobacter baumannii; details: 25 μM, 10^8 CFU/mL
Experimental: as §1

[4] = tested on: Escherichia coli; test: microbe, parasite or virus in culture; format: cell-based
Experimental: (§2) The antimicrobial assay was performed according to a modified National Committee for Clinical Laboratory Standards (NCCLS) protocol ([41], [42]). Briefly, 5 × 10^5 CFU/mL bacterial cells were treated with various peptide concentrations and incubated at 37 ± 2°C for 16 to 20 h. The lowest concentration with clear wells was recorded as the MIC for each test molecule. The clear wells were further plated in Mueller-Hinton agar (MHA) plates, followed by incubation overnight at 37 ± 2°C. After plating, the lowest concentration at which no growth was observed was recorded as the MBC. For the serum sensitivity assay, the antimicrobial activity of the peptides was tested in medium containing 50% human serum ([43], [44]).

[5] = tested on: Pseudomonas aeruginosa; test: microbe, parasite or virus in culture; format: cell-based
Experimental: as §2

[6] = tested on: Enterobacter aerogenes; test: microbe, parasite or virus in culture; format: cell-based
Experimental: as §2

[7] = tested on: NDM-1 Klebsiella pneumoniae; test: microbe, parasite or virus in culture; format: cell-based; details: NDM-1
Experimental: as §2

[8] = tested on: Staphylococcus aureus; format: cell-based
Experimental: as §2

[9] = tested on: human red blood cells; format: cell-based
Experimental: The hemolytic assay was performed after approval from the institutional ethics committee (Academia Sinica Institutional Review Board [IRB]; ID no. AS-IRB02-111075). Blood was collected from healthy humans, and 50 μL of a 2% blood cell suspension in normal saline was treated with an equal volume of peptide at different concentrations. The mixture was then incubated at 37 ± 2°C for 1 h. Next, the cell suspension was centrifuged at 1,000 × g for 10 min. Percent hemolysis was estimated by the absorbance of treated and control supernatant samples at 540 nm ([23], [44]).

[10] = tested on: MDR A. baumannii 1033; test: microbe, parasite or virus in culture; format: cell-based, Acinetobacter baumannii; details: MDR 1033
Summary of the method: (§3)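 Minimum inhibitory concentration determined visually (clear wells) after 16 to 20 h incubation of 5 × 10^5 CFU/mL with peptide at 37 ± 2°C. A parallel serum sensitivity test used medium containing 50% human serum.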

[11] = tested on: MDR A. baumannii 1607; test: microbe, parasite or virus in culture; format: cell-based, Acinetobacter baumannii; details: MDR 1607
Summary of the method: as §3

[12] = tested on: MDR A. baumannii 2088; test: microbe, parasite or virus in culture; format: cell-based, Acinetobacter baumannii; details: MDR 2088; read-out: MBC
Summary of the method: as §3

[13] = tested on: MDR A. baumannii 1019; test: microbe, parasite or virus in culture; format: cell-based, Acinetobacter baumannii; details: MDR 1019
Summary of the method: as §3

[14] = tested on: MDR A. baumannii 2997; test: microbe, parasite or virus in culture; format: cell-based, Acinetobacter baumannii; details: MDR 2997
Summary of the method: as §3

[15] = tested on: MDR A. baumannii 921; test: microbe, parasite or virus in culture; format: cell-based, Acinetobacter baumannii; details: MDR 921
Summary of the method: as §3

[16] = tested on: MDR A. baumannii 14B0091; test: microbe, parasite or virus in culture; format: cell-based, Acinetobacter baumannii; details: MDR 14B0091
Summary of the method: as §3

[17] = tested on: MDR A. baumannii 2998; test: microbe, parasite or virus in culture; format: cell-based, Acinetobacter baumannii; details: MDR 2998; read-out: MBC
Summary of the method: as §3

[18] = tested on: MDR A. baumannii 1702; test: microbe, parasite or virus in culture; format: cell-based, Acinetobacter baumannii; details: MDR 1702
Summary of the method: as §3

[19] = tested on: MDR A. baumannii 2982; test: microbe, parasite or virus in culture; format: cell-based, Acinetobacter baumannii; details: MDR 2982
Summary of the method: as §3

[20] = tested on: MDR A. baumannii 3618; test: microbe, parasite or virus in culture; format: cell-based, Acinetobacter baumannii; details: MDR 3618
Summary of the method: as §3

`CC[C@H](C)[C@H](NC(=O)[C@@H](NC(=O)[C@@H](N)Cc1ccccc1)[C@@H](C)CC)C(=O)N[C@]1(C)CCCC=CCCC[C@](C)(C(=O)NCC(=O)N[C@@H](CC(C)C)C(=O)N[C@@H](Cc2ccccc2)C(=O)N[C@@H](CCCCN)C(=O)N[C@@H](CCCCN)C(=O)N[C@@H](CCCCN)C(=O)N[C@@H](C)C(=O)NCC(=O)N[C@@H](C)C(=O)N[C@]2(C)CCCC=CCCC[C@](C)(C(=O)N[C@H](C(=O)N[C@@H](CCCCN)C(=O)N[C@@H](CCCCN)C(=O)O)[C@@H](C)CC)NC(=O)[C@H](CCCCN)NC(=O)[C@H](CCCCN)NC(=O)[C@H](CCCCN)NC2=O)NC(=O)[C@H](CO)NC(=O)[C@H](CCCCN)NC(=O)[C@H](CCCCN)NC1=O` [TP4-3] (H-FII[R5]KKS[R5]GLFKKKAGA[R5]KKK[R5]IKK-OH; staple 4-8, 18-22; N-terminus and C-terminus assumed) was tested, and the “DiBAC4(3) fluorescence signal (membrane depolarization)” value [1] was “substantial rise in the fluorescence signal”, the “NPN fluorescence signal vs controls” value [2] was roughly 4 fold and the “PI fluorescence signal vs controls” value [3] was “approximately 3 fold”. It also gave an MBC [4] of 25 µM (≈ 72.3 µg/mL), an MIC [4] of 25 µM (≈ 72.3 µg/mL) and an MBC ([5]; read-out: MBC) of 25 µM (≈ 72.3 µg/mL). It also gave an MIC ([5]; read-out: MIC) of 25 µM (≈ 72.3 µg/mL), an MBC [6] of 25 µM (≈ 72.3 µg/mL) and an MIC [6] of 25 µM (≈ 72.3 µg/mL). It also gave an MBC [7] of 25 µM (≈ 72.3 µg/mL), an MIC [7] of 25 µM (≈ 72.3 µg/mL) and an MBC [8] greater than 25 µM. It also gave an MIC [8] greater than 25 µM, a 15% hemolysis concn [9] greater than 100 µM and an MBC [10] of 6.25 to 12.5 µM. The MIC [10] was 6.25 to 12.5 µM, the MIC [11] was 6.25 µM (≈ 18.1 µg/mL) and the MBC ([11]; read-out: MBC) was 12.5 µM (≈ 36.1 µg/mL). The MBC [12] was 6.25 µM (≈ 18.1 µg/mL), the MBC [13] was 12.5 µM (≈ 36.1 µg/mL) and the MIC [13] was 12.5 µM (≈ 36.1 µg/mL). The MBC [14] was 3.13 to 6.25 µM, the MIC [14] was 3.13 to 6.25 µM and the MBC [15] was 6.25 µM (≈ 18.1 µg/mL). The MIC [15] was 6.25 µM (≈ 18.1 µg/mL), the MBC [16] was 3.13 µM (≈ 9.05 µg/mL) and the MIC [16] was 3.13 µM (≈ 9.05 µg/mL). It also gave an MBC [17] of 12.5 µM (≈ 36.1 µg/mL), an MBC [18] of 3.13 to 6.25 µM and an MIC [18] of 3.13 to 6.25 µM. The MBC [19] was 6.25 µM (≈ 18.1 µg/mL), the MIC [19] was 6.25 µM (≈ 18.1 µg/mL) and the MBC [20] was 12.5 µM (≈ 36.1 µg/mL).

Source: paper PMC10101059, “Rational Design of Stapled Antimicrobial Peptides to Enhance Stability and In Vivo Potency against Polymicrobial Sepsis” (Microbiology Spectrum, 2023)
